Data: patent US11535615B2, “Heterocyclic compounds as immunomodulators” (Incyte Corporation, priority 2015, dated 2022)

Biological target: PD-1/PD-L1 protein/protein interaction (Homo sapiens (Human), UniProt Q9NZQ7)
Experiment: PD-1/PD-L1 Homogeneous Time-Resolved Fluorescence (HTRF) Binding Assay
Conditions: recombinant human PD-L1 (19-238) His-tag and human PD-1 (25-167) Fc tag; PBS pH 7.4
Method: Example A. PD-1/PD-L1 Homogeneous Time-Resolved Fluorescence (HTRF) Binding Assay
The assays were conducted in a standard black 384-well polystyrene plate with a final volume of 20 μL. Inhibitors were first serially diluted in DMSO and then added to the plate wells before the addition of other reaction components. The final concentration of DMSO in the assay was 1%. The assays were carried out at […] in the PBS buffer (pH 7.4) with 0.05% Tween-20 and 0.1% BSA. Recombinant human PD-L1 protein (19-238) with a His-tag at the C-terminus was purchased from AcroBiosystems (PD1-H5229). Recombinant human PD-1 protein (25-167) with Fc tag at the C-terminus was also purchased from AcroBiosystems (PD1-H5257). PD-L1 and PD-1 proteins were diluted in the assay buffer and 10 μL was added to the plate well. Plates were centrifuged and proteins were preincubated with inhibitors for 40 minutes. The incubation was followed by the addition of 10 μL of HTRF detection buffer supplemented with Europium cryptate-labeled anti-human IgG (PerkinElmer-AD0212) specific for Fc and anti-His antibody conjugated to SureLight®-Allophycocyanin (APC, PerkinElmer-AD0059H). After centrifugation, the plate was incubated at 25° C. for 60 min. before reading on a PHERAstar FS plate reader (665 nm/620 nm ratio). Final concentrations in the assay were […] PD1, 10 nM PD-L1, 1 nM europium anti-human IgG and 20 nM anti-His-Allophycocyanin. IC50 determination was performed by fitting the curve of percent control activity versus the log of the inhibitor concentration using the GraphPad Prism 5.0 software.

Chain of PD-1/PD-L1 protein/protein interaction (Q9NZQ7 19-238): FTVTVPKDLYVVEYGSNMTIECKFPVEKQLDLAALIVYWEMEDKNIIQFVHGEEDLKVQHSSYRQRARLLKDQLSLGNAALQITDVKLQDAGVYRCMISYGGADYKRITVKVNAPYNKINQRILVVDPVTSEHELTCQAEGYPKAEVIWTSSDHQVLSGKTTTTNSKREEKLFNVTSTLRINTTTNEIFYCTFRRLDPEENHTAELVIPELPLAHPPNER

`COc1c(CNCCO)cnc2c(Nc3cccc(-c4ccccc4)c3C)nccc12` [Example 10, 2-[({4-methoxy-8-[(2-methylbiphenyl-3-yl)amino]-1,7-naphthyridin-3-yl}methyl)amino]ethanol] and `Cc1c(Nc2nccc3c(Cl)c(CNCCO)cnc23)cccc1-c1ccccc1` [Example 9, 2-[({4-chloro-8-[(2-methylbiphenyl-3-yl)amino]-1,7-naphthyridin-3-yl}methyl)amino]ethanol] cannot be ordered by IC50: no more than 0.01 µM for the first, 0.01 to 0.1 µM for the second.

`N#Cc1c(Nc2nccc3cc(CNCCO)cnc23)cccc1-c1ccccc1` [Example 19, 3-[(3-{[(2-hydroxyethyl)amino]methyl}-1,7-naphthyridin-8-yl)amino]biphenyl-2-carbonitrile] and `Cc1c(Nc2nccc3cc(CNCCO)cnc23)cccc1-c1ccccc1` [Example 2, 2-[({8-[(2-methylbiphenyl-3-yl)amino]-1,7-naphthyridin-3-yl}methyl)amino]ethanol] cannot be ordered by IC50: no more than 0.01 µM for the first, no more than 0.01 µM for the second.

`Cc1c(Nc2nccc3c(CNCCO)ccnc23)cccc1-c1ccccc1` [Example 6, 2-[({8-[(2-methylbiphenyl-3-yl)amino]-1,7-naphthyridin-4-yl}methyl)amino]ethanol] and `Cc1c(Nc2cccc3c(CNCCO)ccnc23)cccc1-c1ccccc1` [Example 7, 2-[({8-[(2-methylbiphenyl-3-yl)amino]quinolin-4-yl}methyl)amino]ethanol] fall in the same range of IC50: 0.01 to 0.1 µM for the first, 0.01 to 0.1 µM for the second.

`N#Cc1c(Nc2nccc3cc(CNCCO)cnc23)cccc1C1=CCCCC1` [Example 20, 2-cyclohex-1-en-1-yl-6-[(3-{[(2-hydroxyethyl)amino]methyl}-1,7-naphthyridin-8-yl)amino]benzonitrile] and `Cc1c(Nc2nccc3cc(CNCCO)cnc23)cccc1C1=CCCCC1` [Example 18, 2-[({8-[(3-cyclohex-1-en-1-yl-2-methylphenyl)amino]-1,7-naphthyridin-3-yl}methyl)amino]ethanol] cannot be ordered by IC50: no more than 0.01 µM for the first, no more than 0.01 µM for the second.

`Cc1c(Nc2cccc3cc(CNCCO)cnc23)cccc1-c1ccccc1` [Example 1, 2-[({8-[(2-methylbiphenyl-3-yl)amino]quinolin-3-yl}methyl)amino]ethanol] and `Cc1c(Nc2nccc3nc(CNCCO)cnc23)cccc1-c1ccccc1` [Example 14, 2-[({5-[(2-methylbiphenyl-3-yl)amino]pyrido[3,4-b]pyrazin-2-yl}methyl)amino]ethanol] cannot be ordered by IC50: 0.01 to 0.1 µM for the first, no more than 0.01 µM for the second.

`Cc1c(Nc2nccc3c(CN4CCCCC4C(=O)O)ccnc23)cccc1-c1ccccc1` (stereo not drawn) [Example 5, 1-({8-[(2-methylbiphenyl-3-yl)amino]-1,7-naphthyridin-4-yl}methyl)piperidine-2-carboxylic Acid] and `Cc1c(Nc2nccc3c(Cl)c(CN4CCCCC4C(=O)O)cnc23)cccc1-c1ccccc1` (stereo not drawn) [Example 11, 1-({4-chloro-8-[(2-methylbiphenyl-3-yl)amino]-1,7-naphthyridin-3-yl}methyl)piperidine-2-carboxylic Acid] cannot be ordered by IC50: no more than 0.01 µM for the first, 0.01 to 0.1 µM for the second.

`Cc1c(Nc2nccc3nc(CN4CCCC[C@H]4C(=O)O)cnc23)cccc1-c1ccccc1` [Example 15, (2S)-1-({5-[(2-methylbiphenyl-3-yl)amino]pyrido[3,4-b]pyrazin-2-yl}methyl)piperidine-2-carboxylic Acid] and `Cc1c(Nc2nccc3cc(CN4CCCCC4C(=O)O)cnc23)cccc1-c1ccccc1` (stereo not drawn) [Example 3, 1-({8-[(2-methylbiphenyl-3-yl)amino]-1,7-naphthyridin-3-yl}methyl)piperidine-2-carboxylic Acid] fall in the same range of IC50: 0.01 to 0.1 µM for the first, 0.01 to 0.1 µM for the second.

`Cc1c(Nc2nccc3cc(CNCCO)cnc23)cccc1-c1ccc2c(c1)OCCO2` [Example 17, 2-{[(8-{[3-(2,3-dihydro-1,4-benzodioxin-6-yl)-2-methylphenyl]amino}-1,7-naphthyridin-3-yl)methyl]amino}ethanol] and `N#Cc1c(Nc2nccc3cc(CNCCO)cnc23)cccc1-c1ccc2c(c1)OCCO2` [Example 16, 2-(2,3-dihydro-1,4-benzodioxin-6-yl)-6-[(3-{[(2-hydroxyethyl)amino]methyl}-1,7-naphthyridin-8-yl)amino]benzonitrile] cannot be ordered by IC50: no more than 0.01 µM for the first, no more than 0.01 µM for the second.

`Cc1c(Nc2nccc3c(CN4CCCCC4C(=O)O)ccnc23)cccc1-c1ccc2c(c1)OCCO2` (stereo not drawn) [Example 13, 1-[(8-{[3-(2,3-dihydro-1,4-benzodioxin-6-yl)-2-methylphenyl]amino}-1,7-naphthyridin-4-yl)methyl]piperidine-2-carboxylic Acid] and `Cc1c(Nc2nccc3c(CNCCO)ccnc23)cccc1-c1ccc2c(c1)OCCO2` [Example 12, 2-{[(8-{[3-(2,3-dihydro-1,4-benzodioxin-6-yl)-2-methylphenyl]amino}-1,7-naphthyridin-4-yl)methyl]amino}ethanol] cannot be ordered by IC50: 0.01 to 0.1 µM for the first, no more than 0.01 µM for the second.

`Cc1c(Nc2ncnc3cc(CN4CCCCC4C(=O)O)cnc23)cccc1-c1ccccc1` (stereo not drawn) [Example 4, 1-({4-[(2-methylbiphenyl-3-yl)amino]pyrido[3,2-d]pyrimidin-7-yl}methyl)piperidine-2-carboxylic Acid] and `Cc1c(Nc2cccc3c(CN4CCCCC4C(=O)O)ccnc23)cccc1-c1ccccc1` (stereo not drawn) [Example 8, 1-({8-[(2-methylbiphenyl-3-yl)amino]quinolin-4-yl}methyl)piperidine-2-carboxylic Acid] fall in the same range of IC50: 0.01 to 0.1 µM for the first, 0.01 to 0.1 µM for the second.

`N#Cc1c(Nc2nccc3cc(CNCCO)cnc23)cccc1C1CCCCC1` [Example 21, 2-cyclohexyl-6-[(3-{[(2-hydroxyethyl)amino]methyl}-1,7-naphthyridin-8-yl)amino]benzonitrile] showed an IC50 of 0.01 to 0.1 µM.
